Tests used:
Assay type in all cases: physicochemical
[1] = Rate of encapsulation of polynucleotide/mRNA (Quant-iT RiboGreen, with and without Triton X-100)
Experimental: The rate of encapsulation of the double-stranded polynucleotide was measured using Quant-iT RiboGreen RNA Assay kit (Invitrogen Corp.) according to the attached document.
(§1) Specifically, the double-stranded polynucleotide in the nucleic acid lipid particle dispersion was quantified in the presence and absence of a 0.015% Triton X-100 detergent, and the rate of encapsulation was calculated according to the following expression: {[Amount of the double-stranded polynucleotide in the presence of the detergent]−[Amount of the double-stranded polynucleotide in the absence of the detergent]}/[Amount of the double-stranded polynucleotide in the presence of the detergent]}×100(%) (3) Ratio of Double-Stranded Polynucleotide to Lipid
The rate of encapsulation of the mRNA was measured using Quant-iT RiboGreen RNA Assay kit (Invitrogen Corp.) according to the attached document.
as §1, with “mRNA” for “double-stranded polynucleotide”, “mRNA” for “Double-Stranded Polynucleotide”

[2] = Ratio of polynucleotide/mRNA to lipid (wt/wt)
Experimental: The nucleic acid lipid particle dispersion was mixed with acetonitrile and chloroform at a ratio of 1:1:1 and centrifuged at 15,000 rpm for 2 minutes. Then, the aqueous layer obtained as an upper layer was recovered, followed by the extraction of the double-stranded polynucleotide. The amount of the double-stranded polynucleotide in the sample was measured by ion-exchange chromatography (system: Agilent 1100 series, column: TSKgel DEAE-2SW (2.6×150 mm) (Tosoh Corp), buffer A: 20% acetonitrile, buffer B: 20% acetonitrile and 1.6 M ammonium formate, gradient (B %): 30-55% (0-20 min), flow rate: 1 mL/min, temperature: 40° C., detection: 260 nm).
The amount of the phospholipid in the nucleic acid lipid particle dispersion was measured using Phospholipid C-Test Wako (Wako Pure Chemical Industries Ltd.) according to the attached document. Specifically, the phospholipid in the sample was quantified in the presence of a 1% Triton X-100 detergent.
(§2) The amounts of cholesterol and LP in the nucleic acid lipid particle dispersion were measured by reverse-phase chromatography (system: Agilent 1100 series, column: Chromolith Performance RP-18 endcapped 100-3 monolithic HPLC-column (Merck), buffer A: 0.01% trifluoroacetic acid, buffer B: 0.01% trifluoroacetic acid and methanol, gradient (B %): 87-92% (0-10 min), flow rate: 2 mL/min, temperature: 50° C., detection: 205 nm).
(§3) The total amount of lipids was calculated from the amount of the phospholipid and the compositional ratio of lipid components constituting the liposome, and the ratio of the polynucleotide to the lipid was calculated from the aforementioned amount of the polynucleotide and the total amount of lipids according to the following expression: [Double-stranded polynucleotide concentration]/[Total lipid concentration] (wt/wt)
as §3, with “phospholipid, the amount of cholesterol, and the amount of LP,” for “phospholipid”
The amount of the double-stranded polynucleotide in a sample from the nucleic acid lipid particle dispersion was measured in the presence of a 5% Triton X-100 detergent by ion-exchange chromatography (system: Agilent 1100 series, column: DNAPac PA200 (4×250 mm) (Thermo Fisher Scientific K.K.), buffer A: 10 mM Tris, 25 mM sodium perchlorate, and 20% ethanol, pH 7.0, buffer B: 10 mM Tris, 250 mM sodium perchlorate, and 20% ethanol, pH 7.0, gradient (B %): 20-70% (0-15 min), flow rate: 0.5 mL/min, temperature: 40° C., detection: 260 nm).
as §2, with “82-92%” for “87-92%”
The total amount of lipids was calculated from the amount of the phospholipid, the amount of cholesterol, and the amount of LP, and the compositional ratio of lipid components constituting the liposome, and the ratio of the mRNA to the lipid was calculated from the “amount of the mRNA in the presence of the detergent” of the preceding paragraph (2) according to the following expression: [mRNA concentration in the presence of the detergent]/[Total lipid concentration] (wt/wt)

[3] = Average particle size of nucleic acid lipid particle (NICOMP 380ZLS)
Experimental: The particle size of the liposome was measured using Zeta Potential/Particle Sizer NICOMP™ 380ZLS (Particle Sizing Systems, LLC). In the tables, the average particle size is indicated by a volume-average particle size, and the numeric value following ±represents a deviation.

[4] = particles of Example 31: DSPC:Chol:LP:PEG-C-DMA=20:48:30:2, CT-157/CT-169 double-stranded polynucleotide
[5] = particles of Example 31, volume-average particle size ± deviation

Ratio of polynucleotide to lipid siRNA/lipid ([2]; particles of Example 31, total lipids calculated from phospholipid, cholesterol and LP amounts (Table 4)) [wt/wt] | Structure (SMILES) | Rate of polynucleotide encapsulation [1, 4] [%] | Average particle size [3, 5] [nm] | Rate of polynucleotide encapsulation ([1]; Example 55: particles prepared as in Example 31 (β-catenin double-stranded polynucleotide)) [%] | Ratio of polynucleotide to lipid siRNA/lipid ([2]; Example 55: particles prepared as in Example 31) [wt/wt] | Ratio of polynucleotide to lipid siRNA/lipid ([2]; particles of Example 31, total lipids calculated from phospholipid amount and compositional ratio (Table 3)) [wt/wt] | Average particle size ([3]; Example 55: particles prepared as in Example 31, ± deviation) [nm]
0.072 | CCCCC/C=C\C/C=C\CCCCCCCC(CCCCCCCCCC)OC(=O)OCCCN(C)C (stereo not drawn) [Example 8, 3-Dimethylaminopropyl(9Z,12Z)-octacosa-19,22-dien-11-yl Carbonate] | 96.4 | 157 ± 46 | – | – | – | –
– | CCCCC/C=C\C/C=C\CCCCCCCCC(CCCCCCCC/C=C\C/C=C\CCCCC)OC(=O)OCCN(C)C [Reference Example 2, 2-(Dimethylamino)ethyl(6Z,9Z,28Z,31Z)-heptatriaconta-6,9,28,31-tetraen-19-yl Carbonate, reference compound] | 89.0 | 139 ± 50 | 94 | 0.055 | 0.104 | 165 ± 11

Reference: patent publication US10731159B2, “Cationic lipid” (DAIICHI SANKYO COMPANY, LIMITED, priority 2013, dated 2020)
